Test results as given in US9046516B2, “Immunoassay method, reagent kit for detecting alkaline phosphatase, and reagent kit for immunoassay” (SYSMEX CORPORATION, priority 2007, dated 2015).

System: endogenous ALP
Assay: HBs antigen immunoassay with ALP label: luminescence intensity of samples, reduction of the influence of endogenous ALP
Format: biochemical
Settings: particle dispersion with 2 mM levamisole
Description: In this example, the effect of the inhibitor of endogenous ALP contained in the particle dispersion prepared in (4) above on reduction of the influence of endogenous ALP was examined.
Specifically, the reagents prepared in (1) to (5) above were used and the luminescence intensities of HBs antigen-negative samples were measured. The measurement method is described below.
First, 25 μL sample was mixed with 30 μL of the HBs antibody reagent and then incubated at 42° C. for about 3 minutes, whereby an HBs antigen in the sample was reacted with the biotinylated HBs antibody in the HBs antibody reagent. Subsequently, 30 μL of the magnetic particle reagent was added to the mixture and then incubated for about 2 minutes, and a complex consisting of the HBs antigen and the biotinylated HBs antibody was immobilized on the ST magnetic particles. […] 50 μL of the particle dispersion was added to the ST magnetic particles from which the wash fluid had been removed, then the ST magnetic particles were dispersed in the particle dispersion, 100 μL of the substrate solution was added thereto, and the luminescence intensity of the sample was measured with LUMI-COUNTER 700 (Microtec Nichion). […]

**Q.** With `c1ccc([C@H]2CN3CCSC3=N2)cc1` [Levamisole, (−)-2,3,5,6-tetrahydro-6-phenylimidazo[1,2-b]thiazole] as the molecule, how does the “With Levamisole (Luminescence Intensity, Counts)” value (negative control NC (0.1 M TEA buffer solution containing 5% BSA, pH 7.0)) read?
**A.** Its value is 705 Counts.

**Q.** And the “With Levamisole (Luminescence Intensity, Counts)” value (positive control PC (HBs antigen-positive serum))?
**A.** Its value is 258759 Counts.
